The text below walks through data of ChEMBL document CHEMBL4425183, “Gold catalyzed double condensation reaction: Synthesis, antimicrobial and cytotoxicity of spirooxindole derivatives” (Bioorg Med Chem Lett, 2016).

≈ marks a conversion by molar mass, not a printed value.

Test [1] has as its system Staphylococcus epidermidis. Nature of the test: Antibacterial activity against Staphylococcus epidermidis MTCC 3615 after 24 hrs at 37 degC by two fold serial dilution method. Format: functional. Conditions: MTCC 3615, 24 h.
Test [2] has as its system Micrococcus luteus. Nature of the test: Antibacterial activity against Micrococcus luteus MTCC 106 after 24 hrs at 37 degC by two fold serial dilution method. The format is functional. The following applies: MTCC 106, 24 h.
The subject of test [3] is Salmonella typhimurium. Nature of the test: Antibacterial activity against Salmonella typhimurium MTCC 1251 at 1 mg/disc after 24 hrs at 37 degC by disc diffusion method. Format: functional, Salmonella enterica subsp. enterica serovar Typhimurium.
Test [4] deals with Staphylococcus aureus. Nature of the test: Antibacterial activity against methicillin-resistant Staphylococcus aureus at 1 mg/disc after 24 hrs at 37 degC by disc diffusion method. The format is functional. Background: A growth-free zone around the sample is the usual read-out of agar diffusion tests.
In test [5] the test system is Klebsiella pneumoniae. Nature of the test: Antibacterial activity against Klebsiella pneumoniae MTCC 109 after 24 hrs at 37 degC by two fold serial dilution method. The format is functional. Conditions: MTCC 109, 24 h.
For test [6], the system named is Klebsiella aerogenes. Nature of the test: Antibacterial activity against Enterobacter aerogenes MTCC 111 after 24 hrs at 37 degC by two fold serial dilution method. The format is functional. Conditions: MTCC 111, 24 h.
Test [7] concerns Salmonella typhimurium. In words: Antibacterial activity against Salmonella typhimurium MTCC 1251 after 24 hrs at 37 degC by two fold serial dilution method. Format: functional, Salmonella enterica subsp. enterica serovar Typhimurium. Conditions: Salmonella enterica, MTCC 1251, 24 h.
Test [8] concerns Shigella flexneri. In words: Antibacterial activity against Shigella flexneri MTCC 1457 at 1 mg/disc after 24 hrs at 37 degC by disc diffusion method. The format is functional.
Test [9] has as its system Staphylococcus aureus. Nature of the test: Antibacterial activity against Staphylococcus aureus MTCC 96 at 1 mg/disc after 24 hrs at 37 degC by disc diffusion method. The format is functional.
In test [10] the test system is Klebsiella aerogenes. In words: Antibacterial activity against Enterobacter aerogenes MTCC 111 at 1 mg/disc after 24 hrs at 37 degC by disc diffusion method. The format is functional.
Test [11] deals with Bacillus subtilis. Nature of the test: Antibacterial activity against Bacillus subtilis MTCC 441 at 1 mg/disc after 24 hrs at 37 degC by disc diffusion method. Format: functional.
The subject of test [12] is Klebsiella pneumoniae. Nature of the test: Antibacterial activity against Klebsiella pneumoniae MTCC 109 at 1 mg/disc after 24 hrs at 37 degC by disc diffusion method. The format is functional.
For test [13], the system named is Staphylococcus aureus. Nature of the test: Antibacterial activity against Staphylococcus aureus MTCC 96 after 24 hrs at 37 degC by two fold serial dilution method. Format: functional. Conditions: MTCC 96, 24 h.
Test [14] concerns Staphylococcus aureus. In words: Antibacterial activity against methicillin-resistant Staphylococcus aureus after 24 hrs at 37 degC by two fold serial dilution method. The format is functional.
In test [15] the test system is Staphylococcus epidermidis. In words: Antibacterial activity against Staphylococcus epidermidis MTCC 3615 at 1 mg/disc after 24 hrs at 37 degC by disc diffusion method. Format: functional.
For test [16], the system named is Shigella flexneri. Nature of the test: Antibacterial activity against Shigella flexneri MTCC 1457 after 24 hrs at 37 degC by two fold serial dilution method. The format is functional. The following applies: MTCC 1457, 24 h.
The subject of test [17] is Micrococcus luteus. In words: Antibacterial activity against Micrococcus luteus MTCC 106 at 1 mg/disc after 24 hrs at 37 degC by disc diffusion method. The format is functional.
For test [18], the system named is Bacillus subtilis. In words: Antibacterial activity against Bacillus subtilis MTCC 441 after 24 hrs at 37 degC by two fold serial dilution method. The format is functional. The following applies: MTCC 441, 24 h.
The test system of test [19] is COLO 320. Nature of the test: cells. Conditions: Homo sapiens, COLO 320, read-out: GI.
Description: Cytotoxicity against human COLO320 cells assessed as cell growth inhibition at 156 uM by MTT assay relative to control
The test system of test [20] is Candida albicans. Nature of the test: Antifungal activity against Candida albicans MTCC 227 at 1 mg/disc after 48 hrs at 28 degC by disc diffusion method. The format is functional.
Test [21] deals with Malassezia pachydermatis. Nature of the test: Antifungal activity against Malassezia pachydermatis at 1 mg/disc after 48 hrs at 28 degC by disc diffusion method. The format is functional.
The subject of test [22] is Candida albicans. In words: Antifungal activity against Candida albicans MTCC 227 after 48 to 72 hrs at 28 degC by two fold serial dilution method. The format is functional.

The term MIC denotes the smallest concentration in the dilution series that meets the test's criterion for growth inhibition. A higher MIC goes with a need for much substance. In the case of `CN[C@@H]1[C@H](O[C@H]2[C@H](O[C@H]3[C@H](O)[C@@H](O)[C@H](N=C(N)N)[C@@H](O)[C@@H]3N=C(N)N)O[C@@H](C)[C@]2(O)C=O)O[C@@H](CO)[C@H](O)[C@H]1O` [STREPTOMYCIN], the MIC came to 25 µM (≈ 14.5 µg/mL) in test [1]; 6.25 µM (≈ 3.63 µg/mL) in [2]; 6.25 µM (≈ 3.63 µg/mL) in test [5]; 25 µM (≈ 14.5 µg/mL) in [6]; 30 µM (≈ 17.4 µg/mL) in [7]; 6.25 µM (≈ 3.63 µg/mL) in [13]. For the same compound, the MIC was 6.25 µM (≈ 3.63 µg/mL) in test [14], 6.25 µM (≈ 3.63 µg/mL) in test [16] and 25 µM (≈ 14.5 µg/mL) in [18]. The “inhibition zone (IZ)” value in [3] came to 18 mm; in [4], 30 mm; in [8], 30 mm; in test [9], 14 mm; in [10], 22 mm; in test [11], 25 mm. Moreover, the “inhibition zone (IZ)” value was 20 mm in test [12], 25 mm in [15] and 26 mm in [17].

Consider `O=P1(N(CCCl)CCCl)NCCCO1` (configuration not stated) [CYCLOPHOSPHAMIDE ANHYDROUS], for which, in test [19], the inhibition of growth at 156 µM amounted to 90%.

For the compound `CC(=O)N1CCN(c2ccc(OCC3COC(Cn4ccnc4)(c4ccc(Cl)cc4Cl)O3)cc2)CC1` (configuration not stated) [KETOCONAZOLE], the “inhibition zone (IZ)” value in test [20] is 28 mm; in test [21] it was 26 mm. In addition, in [22], 25 µM (≈ 13.3 µg/mL) was the least that counted as inhibitory (MIC).
